Source: article PMC9603561, “Anticoagulants as Potential SARS-CoV-2 M^pro Inhibitors for COVID-19 Patients: In Vitro, Molecular Docking, Molecular Dynamics, DFT, and SAR Studies” (International Journal of Molecular Sciences, 2022)
Read-outs that look alike come from different tables or passages of the source.

Legend:
[1] = MTT cytotoxicity assay; format: cell-based; conditions: African green monkey
Method: (§1) Half of the maximal cytotoxic concentrations (CC50) were assessed to obtain the exact concentration of a compound that caused a rupture to 50% of cells after being treated with variant doses from the compounds to calculate the safety index (SI) = CC50/IC50 for each compound. The assay was performed through stock solution preparation of the target compounds in DMSO/ddH2O (for those in powder form). However, those in solution form were used directly. The prepared solutions were further diluted with DMEM by attaining the working solutions. […] Shortly, 96 well-plates were utilized for cell seeding and incubated at 37 °C in 5% CO2 for 24 h afterward. After one day, the incubated cells were subjected to different concentrations in triplicates of the investigated compounds. After another 24 h, the supernatant was dismissed, and sterile 1x phosphate buffer saline (PBS) was used for cell monolayer washing in triplicates. Thus, 20 µL of 5 mg/mL stock solution was added to each well and then incubated at 37 °C, followed by a medium aspiration for 4 h. So, the formed formazan crystals were dissolved by 200 µL isopropyl alcohol or DMSO. The formazan solution absorbance was measured at 540 nm (λmax) using a multi-well plate reader, while the reference wavelength was 620 nm. The CC50 of each target compound was measured employing nonlinear regression analysis of GraphPad Prism software.

[2] = tested on: SARS-CoV-2 (hCoV-19/Egypt/NRC-03/2020); assay: Crystal violet assay, SARS-CoV-2 inhibitory assay (cell-based); conditions: Vero E6 cells, crystal violet CPE readout, read-out: Inhibitory Concentration (IC50) against SARS-CoV-2
[3] = target: T1, SARS-CoV-2 M^pro enzyme (Severe acute respiratory syndrome coronavirus 2, UniProt P0DTD1); assay: SARS-CoV-2 M^pro inhibitory assay (3CL Protease Assay Kit); format: biochemical
T1 construct: The 3CL Protease Assay Kit was used; purchased

[4] = tested on: Vero E6 cells; assay: MTT cytotoxicity assay; format: cell-based; conditions: Vero E6 cells, MTT, 24 h treatment; read-out: Cytotoxicity Concentration (CC50)
Method: as §1

[5] = Severe acute respiratory syndrome coronavirus 2, Vero C1008, 72 h
[6] = fluorogenic substrate, triplicate

Molecule	CC50 at 24 h ([1]; Vero E6 cells, MTT, 24 h treatment, read-out: Cytotoxicity Concentration (CC50))	IC50 [2, 5]	IC50 ([2]; 72 h)	IC50 [3, 6]	CC50 at 24 h [1]	CC50 [4]	IC50 ([3]; read-out: SARS-CoV-2 M^pro IC50, fluorogenic substrate, triplicate)
[H]/N=C(/N)c1ccc(NCc2nc3cc(C(=O)N(CCC(=O)O)c4ccccn4)ccc3n2C)cc1 [Dabigatran, dabigatran]	142 µM	9.45 µM	9.4 µM	10.6 µM	–	–	–
CO[C@H]1O[C@H](COS(=O)(=O)O)[C@@H](O[C@@H]2O[C@@H](C(=O)O)[C@@H](O[C@H]3O[C@H](COS(=O)(=O)O)[C@@H](O[C@@H]4O[C@H](C(=O)O)[C@@H](O[C@H]5O[C@H](COS(=O)(=O)O)[C@@H](O)[C@H](O)[C@H]5NS(=O)(=O)O)[C@H](O)[C@H]4O)[C@H](OS(=O)(=O)O)[C@H]3NS(=O)(=O)O)[C@H](O)[C@H]2OS(=O)(=O)O)[C@H](O)[C@H]1NS(=O)(=O)O [Fondaparinux sodium, fondaparinux sodium]	–	8.69 µM	8.6 µM	2.36 µM	152 µM	–	–
CCCSc1nc(N[C@@H]2C[C@H]2c2ccc(F)c(F)c2)c2nnn([C@@H]3C[C@H](OCCO)[C@@H](O)[C@H]3O)c2n1 [Ticagrelor, ticagrelor]	–	5.6 µM	–	47.5 µM	142 µM	–	–
CCC[C@@]1(CCc2ccccc2)CC(O)=C([C@H](CC)c2cccc(NS(=O)(=O)c3ccc(C(F)(F)F)cn3)c2)C(=O)O1 [tipranavir]	–	–	–	7.38 µM	–	–	–
heparin	–	–	106 µM	–	–	262 µM	153 µM
